Key:
Bcl-w = biological target: T1, Bcl-w (Homo sapiens, UniProt Q92843); test: AlphaLISA competitive binding assay, Bcl-w; conditions: His-tagged Bcl-w, biotin-tagged BIM peptide, 24 h incubation
T1 construct: purchased Sigma-Aldrich
T1 sequence (Q92843 1-193): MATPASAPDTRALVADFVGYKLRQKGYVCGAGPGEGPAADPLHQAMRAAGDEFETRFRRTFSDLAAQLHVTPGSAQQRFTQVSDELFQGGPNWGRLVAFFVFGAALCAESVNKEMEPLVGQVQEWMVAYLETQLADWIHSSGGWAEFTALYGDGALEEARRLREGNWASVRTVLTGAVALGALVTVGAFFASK
Experimental: (§1) Purified recombinant His-tagged Bcl-xL/Bcl-2/Bcl-w (Sigma-Aldrich, St. Louis, MO) were incubated with increasing concentrations of compound #55 and a fixed concentration of biotin-tagged Bad (for Bcl-xL) or BIM peptides (for Bcl-2 and Bcl-w) (AnaSpec, Fremont, CA) to a final volume of 40 µL in 96-well PCR plate. After 24 h incubation, 5 μL 6×His-Acceptor beads (final concentration 20 μg/mL) (PerkinElmer, Houston, TX) were added to each well and incubated for 1 h. Thereafter, 5 μL streptavidin-donor beads were added (final concentration 20 μg/mL) (PerkinElmer) to each well and incubated for 0.5 h. At the end of the incubation period, 17 μL of each sample was transferred in adjacent wells of 384-well proxy plate. The plate was scanned using Alpha program on Biotek's Synergy Neo2 multi-mode plate reader. The inhibition constant (Ki) was calculated using non-linear regression, one site, competitive binding, Fit Ki function on GraphPad Prism based on experimentally determined Kd for each protein/peptide pair.

MOLT4 cells = test: MTS cell viability assay in MOLT4 cells
Experimental: (§5) Cell viability was measured by tetrazolium-based MTS assay and IC50 was calculated as a percentage of vehicle-treated cells.

[1] = tested on: caspase-3 and poly (ADP) ribose polymerase (PARP); test: Western blot of cleaved caspase-3 and PARP in MOLT4 cells; assay type: cell-based, human; conditions: 0.1 and 0.3 μM, 24 h
Experimental: At the end of incubation, cells were harvested for western blot analysis of cleaved and full length caspase-3 and poly (ADP) ribose polymerase (PARP). The antibodies for cleaved caspase-3 (Cat #9661), full length caspase-3 (Cat #9662), and PARP (Cat #9532) were purchased from Cell Signaling Technology. A single Anti-PARP antibody used can detect both cleaved and full length PARP.

Bcl-xL [2] = biological target: T2, Bcl-xL (Homo sapiens, UniProt Q07817); test: Western blot Bcl-xL degradation assay in MOLT4 cells; assay type: cell-based; set-up: endogenous in cells; host or cells: MOLT4
T2 sequence (Q07817 whole entry): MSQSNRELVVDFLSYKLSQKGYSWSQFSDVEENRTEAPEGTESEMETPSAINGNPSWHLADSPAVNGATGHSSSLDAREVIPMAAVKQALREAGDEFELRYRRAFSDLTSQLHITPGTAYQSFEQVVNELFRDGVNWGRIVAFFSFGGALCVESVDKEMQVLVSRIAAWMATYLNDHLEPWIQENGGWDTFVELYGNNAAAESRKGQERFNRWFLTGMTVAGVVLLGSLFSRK
Experimental: (§2) MOLT4 cells and human platelets were incubated with increasing concentrations of compound #55 for 16 h. The cells were harvested and lysed in RIPA lysis buffer supplemented with protease and phosphatase inhibitor cocktails. An equal amount of protein (20 μg/lane) was resolved on a pre-cast 4-20% SDS-PAGE gel. Proteins were subsequently transferred to NOVEX PVDF membranes by electrophoresis. The membranes were blocked in blocking buffer (5% non-fat dry milk in TBS-T), and incubated with primary antibodies (at optimized concentrations) overnight at 4° C. After three washings in TBS-T, the membranes were incubated with an appropriate HRP-conjugated secondary antibody for 1 h at room temperature. After extensive washing for three times, the proteins of interest were detected with ECL western blotting detection reagents and recorded with autoradiography (Pierce Biotech, Rockford, IL, USA). The primary antibodies for Bcl-xL (Cat #2762), Bcl-2 (Cat #2872), Mcl-1 (Cat #5453) and β-actin (Cat #4970) were purchased from Cell Signaling technology. The relative band intensity was measured using ImageJ software and normalized to b-actin. The DC50 (concentration with 50% degradation) was calculated using GraphPad Prism. […] Bcl-2 levels were not detected, whereas Mcl-1 was unaffected with compound #55 treatment in MOLT4 cells (FIGS. 1B and 1D). […] The DC50 and Dmax values of compound #55 in platelets were >3 μM and 26%, respectively (FIG. 1E).
MOLT4 cells were incubated with a fixed concentration of compound #55 for increasing time points. In another experiment, cells were treated for 16 hours followed by drug withdrawal and further cultured for increasing time-points before harvesting them for Bcl-xL degradation assays. Bcl-xL levels were measured using Western blot analysis as described above. The relative band intensity was measured using ImageJ software and normalized to equal loading control β-actin.
Cell viability was measured by MTS assay.
Third, we sought to confirm that compound #55-induced Bcl-xL degradation depends on proteasomal activity.
Fourth, we sought to confirm that Bcl-xL degardation by compound #55 requires the binding with Bcl-xL protein.

platelets = test: Platelet toxicity; assay type: cell-based; conditions: up to 3 μM; data not shown
Bcl-xL [3] = biological target: T2, Bcl-xL; test: Western blot Bcl-XL degradation in additional cancer cells; assay type: cell-based; set-up: endogenous in cells; conditions: RS4; 11, EJM, H929 (16 h), H146 (48 h); fixed concentration
Experimental: (§3) MOLT4 cells and human platelets were incubated with increasing concentrations of compound #55 for 16 h. The cells were harvested and lysed in RIPA lysis buffer supplemented with protease and phosphatase inhibitor cocktails. An equal amount of protein (20 μg/lane) was resolved on a pre-cast 4-20% SDS-PAGE gel. Proteins were subsequently transferred to NOVEX PVDF membranes by electrophoresis. The membranes were blocked in blocking buffer (5% non-fat dry milk in TBS-T), and incubated with primary antibodies (at optimized concentrations) overnight at 4° C. After three washings in TBS-T, the membranes were incubated with an appropriate HRP-conjugated secondary antibody for 1 h at room temperature. After extensive washing for three times, the proteins of interest were detected with ECL western blotting detection reagents and recorded with autoradiography (Pierce Biotech, Rockford, IL, USA). […] The relative band intensity was measured using ImageJ software and normalized to b-actin. The DC50 (concentration with 50% degradation) was calculated using GraphPad Prism. […] Bcl-2 levels were not detected, whereas Mcl-1 was unaffected with compound #55 treatment in MOLT4 cells (FIGS. 1B and 1D). […]
(§4) Tumor cells were incubated with a fixed concentration of compound #55 for 16 h (RS4; 11, EJM, H929) or 48 h (H146) and Bcl-2/Bcl-xL/Mcl-1 levels were determined using Western blot analysis as described above.

Mcl-1 [4] = biological target: T3, Mcl-1 (Homo sapiens, UniProt Q07820); test: Western blot Mcl-1 levels in MOLT4 cells; assay type: cell-based; set-up: endogenous in cells; conditions: 16 h
T3 sequence (Q07820 whole entry): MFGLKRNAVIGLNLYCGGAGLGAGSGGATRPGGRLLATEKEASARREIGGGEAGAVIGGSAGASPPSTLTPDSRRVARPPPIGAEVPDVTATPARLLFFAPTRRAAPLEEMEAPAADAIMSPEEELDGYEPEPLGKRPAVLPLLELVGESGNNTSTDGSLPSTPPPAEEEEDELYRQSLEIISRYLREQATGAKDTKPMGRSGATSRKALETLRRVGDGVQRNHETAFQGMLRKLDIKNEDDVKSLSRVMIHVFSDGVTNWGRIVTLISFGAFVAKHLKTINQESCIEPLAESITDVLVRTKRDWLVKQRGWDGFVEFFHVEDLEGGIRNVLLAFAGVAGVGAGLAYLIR
Experimental: MOLT4 cells and human platelets were incubated with increasing concentrations of compound #55 for 16 h. The cells were harvested and lysed in RIPA lysis buffer supplemented with protease and phosphatase inhibitor cocktails. An equal amount of protein (20 μg/lane) was resolved on a pre-cast 4-20% SDS-PAGE gel. Proteins were subsequently transferred to NOVEX PVDF membranes by electrophoresis. The membranes were blocked in blocking buffer (5% non-fat dry milk in TBS-T), and incubated with primary antibodies (at optimized concentrations) overnight at 4° C. After three washings in TBS-T, the membranes were incubated with an appropriate HRP-conjugated secondary antibody for 1 h at room temperature. After extensive washing for three times, the proteins of interest were detected with ECL western blotting detection reagents and recorded with autoradiography (Pierce Biotech, Rockford, IL, USA). The primary antibodies for Bcl-xL (Cat #2762), Bcl-2 (Cat #2872), Mcl-1 (Cat #5453) and β-actin (Cat #4970) were purchased from Cell Signaling technology. The relative band intensity was measured using ImageJ software and normalized to b-actin. The DC50 (concentration with 50% degradation) was calculated using GraphPad Prism. […] Bcl-2 levels were not detected, whereas Mcl-1 was unaffected with compound #55 treatment in MOLT4 cells (FIGS. 1B and 1D). […]

Bcl-2 [5] = biological target: T4, Bcl-2 (Homo sapiens, UniProt P10415); test: Western blot Bcl-2 levels in additional cancer cells; assay type: cell-based; set-up: endogenous in cells; host or cells: RS4;11, EJM, H929, H146; conditions: RS4; 11, EJM, H929 (16 h), H146 (48 h); fixed concentration
T4 sequence (P10415 whole entry): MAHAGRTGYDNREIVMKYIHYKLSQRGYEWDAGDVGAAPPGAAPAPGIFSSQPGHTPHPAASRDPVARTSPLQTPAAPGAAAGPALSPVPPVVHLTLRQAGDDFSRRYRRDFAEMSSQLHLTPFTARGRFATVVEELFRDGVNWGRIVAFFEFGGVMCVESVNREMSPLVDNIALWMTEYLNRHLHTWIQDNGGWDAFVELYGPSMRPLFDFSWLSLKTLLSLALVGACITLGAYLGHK
Experimental: as §3, §4

H146 cells = test: MTS cell viability assay in H146 cells; assay type: cell-based, human
Experimental: Small cell lung cancer H146 cells were incubated either with 500 nM ABT-199 (Bcl-2 inhibitor) or 125 nM compound #55 or the combination of both for 72 h. The cell viability was measured using MTS assay. The combination indices (CI) were calculated using formula CI=AB/(A×B); where AB is the percent cell inhibition by the combination whereas A and B are the percent cell inhibition by individual agents. CI<1 indicates synergism, whereas CI<0.3 indicates strong synergism.

Bcl-2 [6] = biological target: T4, Bcl-2; test: AlphaLISA competitive binding assay, Bcl-2; set-up: purchased Sigma-Aldrich; conditions: His-tagged Bcl-2, biotin-tagged BIM peptide, 24 h incubation
Experimental: as §1

Bcl-xL [7] = biological target: T2, Bcl-xL; test: Western blot Bcl-xL degradation assay in human platelets; assay type: cell-based; set-up: endogenous in cells; host or cells: MOLT4; conditions: 16 h
Experimental: as §2

Bcl-xL [8] = biological target: T2, Bcl-xL; test: AlphaLISA competitive binding assay, Bcl-xL; set-up: purchased Sigma-Aldrich; conditions: His-tagged Bcl-xL, biotin-tagged Bad peptide, 24 h incubation
Experimental: as §1

RS4; 11 cells = test: MTS cell viability assay in RS4; 11 cells; assay type: cell-based, human
Experimental: as §5

Mcl-1 [9] = biological target: T3, Mcl-1; test: Western blot Mcl-1 levels in additional cancer cells; assay type: cell-based; set-up: endogenous in cells; host or cells: RS4;11, EJM, H929, H146; conditions: RS4; 11, EJM, H929 (16 h), H146 (48 h); fixed concentration
Experimental: as §3, §4

H929 cells = test: MTS cell viability assay in H929 cells; assay type: cell-based, human; conditions: Mcl-1-dependent H929 cells, 72 h
Experimental: as §5

EJM cells = test: MTS cell viability assay in EJM cells; assay type: cell-based, human
Experimental: Multiple Myeloma EJM cells were incubated either with 250 nM S63845 (Mcl-1 inhibitor) or 125 nM compound #55 or the combination of both for 72 h. The cell viability was measured using MTS assay. The combination indices (CI) were calculated using formula CI=AB/(A×B); where AB is the percent cell inhibition by the combination whereas A and B are the percent cell inhibition by individual agents. CI<1 indicates synergism, whereas CI<0.3 indicates strong synergism.

## CC1(C)CCC(c2ccc(Cl)cc2)=C(CN2CCN(c3ccc(C(=O)NS(=O)(=O)c4ccc(N[C@H](CCN5CCOCC5)CSc5ccccc5)c(S(=O)(=O)C(F)(F)F)c4)cc3)CC2)C1 [ABT-263, navitoclax, reference compound]
Bcl-w
  Ki: 0.0335 µM
MOLT4 cells; MOLT4 cells, with 1 μM and 2 μM VHL-L, 72 h
  cell killing in the presence of VHL-L: could not further induce the cell killing in the presence of VHL-L

## (2S,4R)-1-((S)-2-(7-(4-((R)-3-((4-(N-(4-(4-((4′- Chloro-4,4-dimethyl- 3,4,5,6-tetrahydro-[1,1′-biphenyl]-2- yl)methyl)piperazin-1-yl)benzoyl)sultamoyl)-2- ((trifluoromethyl)sulfonyl)phenyl)amino)-4- (phenylthio)butyl)piperazin-1-yl)-7- oxoheptanamido)-3,3-dimethylbutanoyl)-4-hydroxy- N-((S)-1-(4-(4-methylthiazol-5- yl)phenyl)ethyl)pyrrolidine-2-carboxamide [compound #55]
[1]
  cleavage of caspase-3 and PARP: induced cleavage of caspase-3 and PARP
  cleavage of caspase-3 and PARP compared with ABT263: more pronounced than ABT263
Bcl-xL [2]; 1 μM ABT-263 pretreatment, 0.1 and 1 μM, 16 h
  Bcl-xL degradation in ABT263-pretreated cells: did not induce Bcl-xL degradation
Bcl-xL [2]; 1 μM MG132 pretreatment, 0.1 and 1 μM, 6 h
  Bcl-xL degradation in MG132-pretreated cells: did not induce Bcl-xL degradation
Bcl-xL [2]; 16 h
  Dmax (maximum degradation) of Bcl-xL: 90.8%
Bcl-xL [2]; 16 h, read-out: DC50 (concentration with 50% degradation) of Bcl-xL
  DC50: 0.063 µM
Bcl-xL [2]; VHL-L pretreatment, then 16 h
  Bcl-xL degradation in VHL-L-pretreated cells: did not induce Bcl-xL degradation
Bcl-xL [2]; fixed concentration, increasing time points
  time at which significant Bcl-xL degradation starts: 2 h
Bcl-xL [2]; treated 16 hours then drug withdrawal
  Bcl-xL degrading activity after drug withdrawal: able to sustain its Bcl-xL degrading activity for prolonged period after drug withdrawal
Bcl-w
  Ki: 0.301 µM
platelets
  platelet toxicity: did not induce any significant platelet toxicity
Bcl-xL [3]
  Bcl-XL degradation: capable of degrading Bcl-XL in all these cell lines
Mcl-1 [4]
  Mcl-1 levels: unaffected
Bcl-2 [5]
  effect on Bcl-2 levels: sparing Bcl-2 and Mcl-1
H146 cells; Bcl-2/Bcl-xL-dependent H146 cells, 72 h, MTS, read-out: IC50 loss of cell viability
  IC50: 0.16 µM
H146 cells; H146 cells, 125 nM compound #55 + 500 nM ABT-199, 72 h, MTS
  loss of cell viability in combination with ABT-199: synergistically induce the loss of cell viability
H146 cells; H146 cells, 72 h
  effect on cell viability compared with ABT-263: less prominent than ABT-263
Bcl-2 [6]
  Ki: 0.00182 µM
Bcl-xL [7]
  Bcl-xL levels: did not affect Bcl-xL levels
  DC50: > 3 µM
  Dmax of Bcl-xL: 26%
MOLT4 cells; MOLT4 cells pretreated with 1 and 2 μM VHL-L for 1 h, then 72 h
  cell killing in the presence of VHL-L: abrogated
MOLT4 cells; read-out: IC50 cell viability, Bcl-XL-dependent MOLT4 cells, 72 h, MTS
  IC50: 0.052 µM
Bcl-xL [8]
  Ki: 0.0128 µM
RS4; 11 cells; Bcl-2-dependent RS4, 72 h, MTS, read-out: IC50 loss of cell viability
  IC50: 0.23 µM
RS4; 11 cells; RS4, 72 h
  effect on cell viability compared with ABT-263: less prominent than ABT-263
Mcl-1 [9]
  effect on Mcl-1 levels: sparing Bcl-2 and Mcl-1
H929 cells
  cellular activity: did not show any significant cellular activity
EJM cells; EJM cells, 125 nM compound #55 + 250 nM S63845, 72 h
  loss of cell viability in combination with S63845: synergistically induce the loss of cell viability
EJM cells; Mcl-1-dependent EJM cells, 72 h
  cellular activity: did not show any significant cellular activity

— patent publication US12118414B2, “BCL-2 proteins degraders for cancer treatment” (BioVentures, LLC, priority 2018, dated 2024)
